Test results published in patent US9499612B2, “Antigen binding constructs” (Glaxo Group Limited, priority 2011, dated 2016).

Tests used:
[1] = test system: human VEGF165 induced blood-retinal breakdown; assay: VEGF induced blood-retinal breakdown: rabbit retinal leakage model; type: in vivo; conditions: for % reduction vs vehicle: Table 4B
Protocol: The high (H) and low (L) doses were based upon a molar equivalent dosing to Ranibizumab ([…] ™). The low dose, (L), was one third of the high dose.
In brief, all molecules were buffer exchanged using PD-10 Desalting Columns (GE Healthcare) into 10 mM Histidine HCl, 10% α-αtrehalose dehydrate, 0.01% PolySorbate 80, pH 5.5, and concentrated to the desired concentration using VIVASPIN™ 20, molecular weight cut off 5000 Da, spin concentrations (Sartorius Stedim Biotech), both were used according to manufacturer's instructions.
Ninety-eight (98) GD79B pigmented rabbits were randomly divided into nine (9) groups of ten (10) animals and one (1) group of eight (8) animals (used for KENACORT™ control). Each group was subdivided into 2 groups corresponding to 2 experimental sets. Test items, reference or control items were administered by intravitreal injection (IVT, 50 μL) into the right eyes on Day-7. Left eyes remained untreated and served as a negative control. On Day 0, right eyes were induced for blood retinal barrier (BRB) breakdown with a single intravitreal injection of 500 ng rhVEGF165 (vascular permeability inducer). Sodium fluorescein was intravenously injected to all groups 47 h after the VEGF challenge (Day 2). Within 10 min after the injection of the tracer a retinal angiography was performed on right eye and pictures were taken. Ocular fluorescein contents in the vitreoretinal compartment were measured 1 h later using non-invasive scanning ocular fluorophotometry. A right eye/left eye fluorescein content (AUC) Rt ratio was determined for retinal permeability evaluation. At the end of the evaluation period (Day 2), animals were euthanized and right eyes of all animals were enucleated. […] Fluorescein angiograms were collected for qualitative assessment.
One hundred and forty (140) HY79B pigmented rabbits were randomly divided into eleven (11) groups of twelve (12) animals and one (1) group of eight animals, each group was sub-divided into 4 experimental sets of 3 animals, bar the KENACORT™ treated group, (4 sets of 2 animals), (see Table 15A).

[2] = test system: VEGF165 induced proliferation of human umbilical vein endothelial cells; assay: Human Umbilical Cord Endothelial Cell (HUVEC) proliferation assay; type: cell-based
Protocol: The assay measures the extent of endothelial cell proliferation induced by a defined concentration of VEGF165 and the ability of VEGF antagonists to block this effect. HUVECs were seeded at 5000 cells per well in 96-well gelatine-coated plates, leaving outer wells free of cells, and incubated for several hours to permit adherence. Test molecules were assayed at equimolar concentrations (max 3.33×10^−08 M) with a 2-fold serial dilution, each in triplicate. The VEGF165 was prepared in basal medium to achieve 75 ng/ml final concentration. Medium was removed manually from the cell monolayers and 50 μl basal media was added to prevent the cells from drying out. […] Cells were incubated for 72 hrs, after which time the total number of cells was determined using Cell Titre Glo. […]
(§1) PRISM™ using a Sigmodial curve fit, variable slope cf a non-linear regression (variable slope). […] Estimates of the curve maxima and the standard error were analysed using a weighted mixed model analysis of variance, using 1/(standard error)^2, [SE]^2, as a weighting. […]
as §1

[3] = dose H, VEGF induced retinal leakage

Compound	% reduction vs vehicle ([1]; 2 000 μg/eye)	% reduction ([1]; Table 15B (ii), 2 000 ug/eye)	inhibition of HUVEC proliferation ([2]; Example 8, 75 ng/ml VEGF165, 72 hrs)	inhibition of VEGF driven HUVEC proliferation ([2]; Example 18)	% reduction vs vehicle [1, 3]	% reduction vs vehicle ([1]; low dose (L))
C[C@]12C=CC(=O)C=C1CC[C@H]1[C@@H]3C[C@@H](O)[C@](O)(C(=O)CO)[C@@]3(C)C[C@H](O)[C@@]12F [KENACORT ™, Triamcinalone, reference compound]	85%	80%	–	–	–	–
Bevacizumab [AVASTIN ™, reference compound]	–	–	~100%	~100%	75%	–
Ranibizumab [LUCENTIS ™, reference compound]	–	–	–	–	82%	78%
